Laboratory results published in patent publication US20070072912A1, “Alicyclic-amine-substituted 4-carboxamido-benzimidazoles as parp-inhibitors and antioxidants” (Cedars-Sinai Medical Center, priority 2003, published 2007).
Where a name gives a salt, the structure may show the parent alone. Read-outs that look alike come from different tables or passages of the source.

Experiments:
[1] = biological target: T1, Poly-ADP-ribose polymerase (PARP enzyme) (Rattus norvegicus, UniProt P27008); assay: Inhibitory effect of benzimidazole derivatives on PARP enzyme in vitro ([3H]NAD+ incorporation); assay type: biochemical
T1 construct: Poly-ADP-ribose polymerase was isolated from rat liver; from tissue; host or cells: rat liver
T1 sequence (P27008 whole entry): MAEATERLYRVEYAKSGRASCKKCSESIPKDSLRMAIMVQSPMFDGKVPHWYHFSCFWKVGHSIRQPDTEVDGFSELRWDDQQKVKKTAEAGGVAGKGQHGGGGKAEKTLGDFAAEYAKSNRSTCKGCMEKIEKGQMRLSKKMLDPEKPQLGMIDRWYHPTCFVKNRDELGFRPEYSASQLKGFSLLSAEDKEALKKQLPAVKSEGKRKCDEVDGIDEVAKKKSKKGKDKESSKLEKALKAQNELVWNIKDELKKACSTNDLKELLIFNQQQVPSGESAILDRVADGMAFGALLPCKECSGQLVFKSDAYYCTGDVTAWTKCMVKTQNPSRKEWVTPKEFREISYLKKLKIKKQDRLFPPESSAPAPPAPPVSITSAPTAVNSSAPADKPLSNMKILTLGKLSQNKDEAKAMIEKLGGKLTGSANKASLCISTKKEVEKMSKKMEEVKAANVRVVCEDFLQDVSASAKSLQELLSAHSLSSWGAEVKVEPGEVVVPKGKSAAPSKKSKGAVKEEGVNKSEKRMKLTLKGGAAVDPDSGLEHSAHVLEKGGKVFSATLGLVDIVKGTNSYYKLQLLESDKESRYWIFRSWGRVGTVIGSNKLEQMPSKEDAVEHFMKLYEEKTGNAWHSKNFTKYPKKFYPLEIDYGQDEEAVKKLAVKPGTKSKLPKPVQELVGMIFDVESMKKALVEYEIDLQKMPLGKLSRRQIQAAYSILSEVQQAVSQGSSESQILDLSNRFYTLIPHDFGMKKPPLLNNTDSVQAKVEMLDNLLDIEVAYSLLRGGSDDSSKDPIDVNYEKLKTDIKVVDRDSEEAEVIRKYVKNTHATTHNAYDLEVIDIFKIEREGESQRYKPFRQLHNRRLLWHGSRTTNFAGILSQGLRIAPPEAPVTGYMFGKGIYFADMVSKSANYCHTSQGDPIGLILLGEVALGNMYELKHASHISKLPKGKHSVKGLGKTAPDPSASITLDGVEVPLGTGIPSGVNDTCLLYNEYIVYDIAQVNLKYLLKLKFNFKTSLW
Description: Assay to test inhibitory effects of benzimidazole derivatives on PARP enzyme in vitro.
The potential inhibitory effect of benzimidazole derivatives were tested in this assay system. The PARP activity was determined in 130 μl reaction mixture contained 100 mM Tris-HCl buffer, pH 8.0, 10 mM MgCl2, 10% glycerol, 1.5 mM DTT, 1 mM [Adenine-2,8-^3H] NAD^+ (4.500 cpm/nmol), 10 μg activated DNA and 10 μg histones. The incubation time was 15 minutes, and the reaction was stopped by addition of trichloro-acetic acid (8%). After addition of 0.5 mg albumine, precipitation was allowed to proceed for at least 20 minutes on ice, and the insoluble material was collected on a glass filter washed with 5% perchloric acid. The protein-bound radio-activity was determined by a LS-200 Beckman scintillation counter.

[2] = PARP isolated from rat liver, 1 mM [3H]NAD+, 15 min incubation, read-out: PARP IC50

| SMILES | IC50 [1, 2] [nM] | IC50 [1] [nM] | also measured |
| --- | --- | --- | --- |
| COC(=O)C1C(c2nc3c(C(N)=O)cccc3[nH]2)C(C)(C)NC1(C)C (centres unmarked) [Compound 4, 4-(4-carbamoyl-1H-benzimidazol-2-yl)-2,2,5,5-tetramethyl-pyrrolidine-3-carboxylic acid methyl ester] | 216 | – | – |
| CC1(C)C=C(CSc2nc3c(C(N)=O)cccc3[nH]2)C(C)(C)N1 (as salt: HCl) [Compound 27, 2-(2,2,5,5-tetramethyl-2,5-dihydro-1H-pyrrol-3-yl-methyl-sulphanyl)-1H-benzimidazole 4-carboxylic acid amide] | – | – | melting point: 209 to 211 °C |
| CC1(C)C=C(c2ccc(-c3nc4c(C(N)=O)cccc4[nH]3)cc2)C(C)(C)N1[O] [Compound 11, 2-[4-(1-oxyl-2,2,5,5-tetramethyl-2,5-dihydro-1H-pyrrol-3-yl)-phenyl]-1H-benzimidazole 4-carboxylic acid amide radical] | – | 78 | – |
| CN1C(C)(C)C=C(c2nc3c(C(N)=O)cccc3[nH]2)C1(C)C [Compound 13, 2-(1,2,2,5,5-pentamethyl-2,5-dihydro-1H-pyrrol-3-yl)-1H-benzimidazole 4-carboxylic acid amide] | – | 42 | – |
| CC1(C)c2cc(-c3nc4c(C(N)=O)cccc4[nH]3)sc2C(C)(C)N1[O] [Compound 24, 2-(5-oxyl-4,4,6,6-tetramethyl-4,6-dihydro-5H-thieno[2,3-c]pyrrol-2-yl)-1H-benzimidazole 4-carboxylic acid amide radical] | – | 3400 | – |
| CC1(C)NC(C)(C)C(c2nc3c(C(N)=O)cccc3[nH]2)=C1Br [Compound 6, 2-(4-bromo-2,2,5,5-tetramethyl-2,5-dihydro-1H-pyrrol-3-yl)-1H-benzimidazole 4-carboxylic acid amide] | 137 | – | – |
| CC1(C)C=C(c2nc3c(C(N)=O)cccc3[nH]2)CC(C)(C)N1 [Compound 19, 2-(2,2,6,6-tetramethyl-1,2,3,6-tetrahydro-pyridin-4-yl)-1H-benzimidazole 4-carboxylic acid amide] | – | 14 | – |
| CC1(C)C=C(COc2ccc(-c3nc4c(C(N)=O)cccc4[nH]3)cc2)C(C)(C)N1[O] [Compound 20, 2-[4-(1-oxyl-2,2,5,5-tetramethyl-2,5-dihydro-1H-pyrrol-3-yl-methoxy)-phenyl]-1H-benzimidazole 4-carboxylic acid amide radical] | – | 564 | – |
| CC1(C)NC(C)(C)C(c2nc3c(C(N)=O)cccc3[nH]2)=C1c1ccccc1 [Compound 8, 2-(4-phenyl-2,2,5,5-tetramethyl-2,5-dihydro-1H-pyrrol-3-yl)-1H-benzimidazole 4-carboxylic acid amide] | 310 | – | – |
| CC1(C)NC(C)(C)C(c2cccc3c2oc2ccccc23)=C1c1nc2c(C(N)=O)cccc2[nH]1 [Compound 17] | 8200 | – | – |
| CC1(C)C=C(c2nc3c(C(N)=O)cccc3[nH]2)C(C)(C)N1[O] [Compound 1, 2-(1-oxyl-2,2,5,5-tetramethyl-2,5-dihydro-1H-pyrrol-3-yl)-1H-benzimidazole 4-carboxylic acid amide radical] | – | 721 | – |
| CC1(C)C=C(c2ccc(-c3nc4c(C(N)=O)cccc4[nH]3)cc2)C(C)(C)N1 [Compound 12, 2-[4-(2,2,5,5-tetramethyl-2,5-dihydro-1H-pyrrol-3-yl)-phenyl]-1H-benzimidazole 4-carboxylic acid amide] | 98 | – | – |
| CC1(C)NC(C)(C)c2sc(-c3nc4c(C(N)=O)cccc4[nH]3)cc21 [Compound 25, 2-(4,4,6,6-tetramethyl-4,6-dihydro-5H-thieno[2,3-c]pyrrol-2-yl)-1H-benzimidazole 4-carboxylic acid amide] | – | 354 | – |
| CC1(C)C(c2ccccc2)=C(c2nc3c(C(N)=O)cccc3[nH]2)C(C)(C)N1[O] [Compound 7, 2-(1-oxyl-4-phenyl-2,2,5,5-tetramethyl-2,5-dihydro-1H-pyrrol-3-yl)-1H-benzimidazole 4-carboxylic acid amide radical] | – | 1500 | – |
| COc1cc(-c2nc3c(C(N)=O)cccc3[nH]2)ccc1OCC1=CC(C)(C)NC1(C)C [Compound 23, 2-[3-methoxy-4-(2,2,5,5-tetramethyl-2,5-dihydro-1H-pyrrol-3-yl-methoxy)-phenyl]-1H-benzimidazole 4-carboxylic acid amide] | – | 432 | – |
| CON1C(C)(C)C=C(c2nc3c(C(N)=O)cccc3[nH]2)C1(C)C [Compound 15, 2-(1-methoxy-2,2,5,5-tetramethyl-2,5-dihydro-1H-pyrrol-3-yl)-1H-benzimidazole 4-carboxylic acid amide] | 61 | – | – |
| CC1(C)NC(C)(C)C(c2nc3c(C(N)=O)cccc3[nH]2)=C1c1cccc(C(F)(F)F)c1 [Compound 10, 2-[2,2,5,5-tetramethyl-4-(3-trifluoromethyl-phenyl)-2,5-dihydro-1H-pyrrol-3-yl]-1H-benzimidazole 4-carboxylic acid amide] | – | 133 | – |
| COc1cc(-c2nc3c(C(N)=O)cccc3[nH]2)ccc1OCC1=CC(C)(C)N([O])C1(C)C [Compound 22, 2-[3-methoxy-4-(1-oxyl-2,2,5,5-tetramethyl-2,5-dihydro-1H-pyrrol-3-yl-methoxy)-phenyl]-1H-benzimidazole 4-carboxylic acid amide radical] | – | 472 | – |
| CC1(C)C=C(c2nc3c(C(N)=O)cccc3[nH]2)CC(C)(C)N1O [Compound 18, (1-hydroxy-2,2,6,6-tetramethyl-1,2,3,6-tetrahydro-pyridin-4-yl)-1H-benzimidazole 4-carboxylic acid amide] | 26 | – | – |
| CC1(C)C(c2nc3c(C(N)=O)cccc3[nH]2)=C(c2cccc3c2oc2ccccc23)C(C)(C)N1[O] [Compound 16] | – | 1800 | – |
| CC1(C)C(c2cccc(C(F)(F)F)c2)=C(c2nc3c(C(N)=O)cccc3[nH]2)C(C)(C)N1[O] [Compound 9, 2-[1-oxyl-2,2,5,5-tetramethyl-4-(3-trifluoromethyl-phenyl)-2,5-dihydro-1H-pyrrol-3-yl]-1H-benzimidazole 4-carboxylic acid amide radical] | – | 149 | – |
| CC1(C)C(Br)=C(c2nc3c(C(N)=O)cccc3[nH]2)C(C)(C)N1[O] [Compound 5, 2-(4-bromo-1-oxyl-2,2,5,5-tetramethyl-2,5-dihydro-1H-pyrrol-3-yl)-1H-benzimidazole 4-carboxylic acid amide radical] | – | 201 | – |
| CC(=O)N1C(C)(C)C=C(c2nc3c(C(N)=O)cccc3[nH]2)C1(C)C [Compound 14, 2-(1-acetyl-2,2,5,5-tetramethyl-2,5-dihydro-1H-pyrrol-3-yl)-1H-benzimidazole 4-carboxylic acid amide] | 49 | – | – |
| CC1(C)C=C(c2nc3c(C(N)=O)cccc3[nH]2)C(C)(C)N1 [Compound 2, 2-(2,2,5,5-tetramethyl-2,5-dihydro-1H-pyrrol-3-yl)-1H-benzimidazole 4-carboxylic acid amide] | 345 | – | – |
| CC1(C)C=C(COc2ccc(-c3nc4c(C(N)=O)cccc4[nH]3)cc2)C(C)(C)N1 [Compound 21, 2-[4-(2,2,5,5-tetramethyl-2,5-dihydro-1H-pyrrol-3-yl-methoxy)-phenyl]-1H-benzimidazole 4-carboxylic acid amide] | 572 | – | – |
| CC1(C)C=C(CSc2nc3c(C(N)=O)cccc3[nH]2)CC(C)(C)N1 [Compound 29, 2-(2,2,6,6-tetramethyl-1,2,3,6-tetrahydro-pyridin-4-yl-methylsulphanyl)-1H-benzimidazole 4-carboxylic acid amide] | – | – | melting point: 245 to 246 °C |
